Test results published in patent EP2433636A1, “Treatment of Malignant Diseases” (Medizinische Universität Wien, priority 2010, dated 2012).
“Also recorded” adds a separate entry of the source.

Tests used:
Cyclin D1 = Cyclin D1 expression by flow cytometry; assay type: cell-based; details: Homo sapiens, 4 h; compared to untreated controls; read-out: Cyclin D1 fluorescence intensity, decrease
Experimental: (§1) Tumour cells were seeded in 10 cm plates and allowed to adhere before treatment with 20 µM compound AZA1 for 4 h before trypsinization and washing with PBS.
(§2) One portion of the cells were then fixed with 70% ethanol for 1h at 4°C, washed with PBS and stained with propidium iodide (PI) puffer with 50 µg/ml DNase-free RNaseA. Cells in different cell cycle stages were determined. The rest of the cells were fixed with Cytofix fixation buffer (BD) for 30 min at 37°C, washed and then permeabilized with Perm buffer III (BD) and stained with Cyclin D1 (anti-human Cyclin D1 antibody set), phospho-Akt (anti-phospho-Akt pT308), phospho-ERK (anti-phospho-ERK1/2 pT202/pY204), phospho-JNK (anti-phospho-JNK pT183/pY185) and phospho-p38 antibodies (anti-phospho-p38 MAPK pT180/pY182) (the latter antibodies were purchased from BD Biosciences). […] were analyzed on a FACScan flow cytometer (BD Biosciences) with an argon laser tuned to 488 nm.

Pak1 = assay: Western blot, Pak1 total protein; assay type: cell-based, Human; details: 2 µM for 24h, compared to controls
Experimental: (§3) Cell lysates were prepared (Aharinejad et al., Cancer Res. 62 (2002), 5317-5324 and Cancer Res. 64 (2004), 5378-5384) and 50 µg/lane separated by 9% SDS-PAGE prior to electrophoretic transfer onto Hybond C super (Amersham Pharmacia Biotech, Buckinghamshire, UK). The blots were probed with antibodies against PAK1 and phospho-Pak1 (pS144)/Pak2 (pS141) (Cell Signaling Technology, Danvers, MA) before incubation with horseradish peroxidase-conjugated secondary antibodies (Amersham Pharmacia Biotech). Proteins were immunodetected by chemiluminescence (Supersignal-West- Femto, Pierce, Rockford, IL) and quantified by Image Quant 5.0 software (Molecular Dynamics, Sunnyvale, CA).

[1] = Solubility test in 20-30% DMSO in water; assay type: physicochemical; details: appropriate if 1mM of the compound is soluble in 20-30% DMSO in water; 100 mM stock in 100% DMSO
Experimental: Compounds in powder form were dissolved in 100% DMSO to obtain 100 mM stock solutions of each of the compounds. Solubility of the compounds was then tested by preparing solutions in 20-30% DMSO in water. […] Compounds which were non-soluble in 30% DMSO were regarded as non-soluble. NSC23766 was always used as a reference compound.

[2] = system: phospho-Pak1 (pS144)/Pak2 (pS141); assay: Western blot, phospho-Pak1/2; assay type: cell-based, Human; details: 2 µM for 24h, compared to controls
Experimental: as §3

CRL-2505 cells [3] = assay: Cell cycle distribution by flow cytometry (propidium iodide); assay type: cell-based, Human; details: 24 h; for sub G1 events (M1): untreated 1.47%
Experimental: as §2

phospho-p38 = assay: Phospho-p38 by flow cytometry; assay type: cell-based, Human; details: compared to untreated cells
Experimental: as §1, §2

CRL-2505 cells [4] = assay: Apoptosis by flow cytometry (Annexin V-FITC and PI); assay type: cell-based, Human; details: 3 h after treatment
Excerpt: Then the effect of Rac1 inhibition on the cell cycle regulatory protein Cyclin D1 was examined. […] Next, flow cytometry was used to assess apoptosis in response to Rac1 inhibition.

[5] = system: CRL-2505 prostate cancer xenograft; assay: Human prostate cancer xenograft tumour model; assay type: in vivo, athymic nu/nu (nude) mice
Experimental: The experiments performed in this study were approved by the Institutional Animal Care and Use Committee at the Vienna Medical University. Pathogen-free, male, 5 week-old athymic nu/nu (nude) mice (Charles River, Sulzfeld, Germany) were weighed, coded and divided into experimental groups of (n = 10) at random. Mice were anesthetized (ketamine hydrochloride/xylazine at 55/7.5 mg/kg i.p.) and 15x10^6 CRL-2505 cells/100 µl PBS were injected s.c. into the left flank (Aharinejad et al., 2004). In a preliminary experiment mice received i.p. injections with 100 µg compound AZA1, AZA2, AZA3, or AZA4 in 100 µl 30% DMSO six days after cell injection for two weeks, control animals received 100 µl 30% DMSO/day (n = 5 for each group). […] Tumour volumes were calculated as length x width^2/2. […]
On day 24, tumors were isolated, weighed and the animals were sacrificed. […] Primary antibodies were detected by sequential incubation with appropriate biotinylated secondary antibodies (Vector Laboratories, Burlingame, CA) and peroxidase conjugated streptavidin (Dako), developed with 3, 3'-diaminobenzidine (Vector Laboratories), counter-stained with haemalaun, dehydrated and mounted in DPX (Merck, Darmstadt, Germany) and digitalized images were generated.

[6] = system: CRL-2505 prostate cancer cells; assay: WST-1 cell proliferation assay; assay type: cell-based, Human; details: 72 hours of incubation with 1, 2, 5, 10 and 25 µM, compared to untreated cells
Experimental: Human CRL-2505 cells were seeded in 96-well plates at a density of 1x10^4 cells/well in culture medium. Cells were incubated with 1, 2, 5, 10, 25 µM compound AZA1. Cell proliferation was determined 24, 48 or 72 h after treatment using the WST-1 reagent (Roche Diagnostics, Indianapolis, IN) according to the manufacturer's protocol (Zins et al., Cancer Res. 67 (2007), 1038-1045). Each experiment was repeated three times.

phospho-Akt = assay: Phospho-Akt by flow cytometry; assay type: cell-based, Human
Experimental: as §2

Rac 1, 2, 3 = Rac 1, 2, 3 activation assay (G-LISA) after EGF stimulation; assay type: cell-based, Human
Experimental: Prostate cancer cells were seeded in 6-well plates and starved for 20 h. Cells were incubated with Rac1 small molecule inhibitor AZA1 for 4 h and then stimulated with 50 ng/ml epidermal growth factor (EGF) (R&D systems) for 1 min 30 sec and Rac activation was then measured with the G-LISA method (Rac 1, 2, 3 activation assay, colorimetric format, Cytoskeleton) according to the manufacturer's protocol.

phospho-JNK = assay: Phospho-JNK by flow cytometry; assay type: cell-based, Human; details: compared to untreated cells
Experimental: as §1, §2

phospho-ERK = assay: Phospho-ERK by flow cytometry; assay type: cell-based, Human; details: compared to untreated cells
Experimental: as §1, §2

[7] = system: CRL-2505 prostate cancer xenograft; assay: Survival study in prostate cancer xenograft bearing mice; assay type: in vivo, athymic nu/nu (nude) mice
Experimental: The experiments performed in this study were approved by the Institutional Animal Care and Use Committee at the Vienna Medical University. Pathogen-free, male, 5 week-old athymic nu/nu (nude) mice (Charles River, Sulzfeld, Germany) were weighed, coded and divided into experimental groups of (n = 10) at random. Mice were anesthetized (ketamine hydrochloride/xylazine at 55/7.5 mg/kg i.p.) and 15x10^6 CRL-2505 cells/100 µl PBS were injected s.c. into the left flank (Aharinejad et al., 2004). In a preliminary experiment mice received i.p. injections with 100 µg compound AZA1, AZA2, AZA3, or AZA4 in 100 µl 30% DMSO six days after cell injection for two weeks, control animals received 100 µl 30% DMSO/day (n = 5 for each group). In the main experiment, mice received i.p. injections with 100 µg compound AZA1 in 100 µl 30% DMSO six days after cell injection for two weeks, control animals received 100 µl 30% DMSO/day (n = 10 for each group). Tumour volumes were calculated as length x width^2/2. All animals were sacrificed on day 20.
The survival study was set for three months. Mice were treated with compound AZA1 (n = 10) or 30% DMSO (n = 10) and were euthanized when moribund.
Data were tested for normality using the Shapiro-Wilk test. Groups were compared by nonparametric analysis of variance (ANO-VA, Wilcoxon rank-sum test, Kruskal-Wallis test). All statistical tests were two-sided. The overall survival curves after treatment were analyzed by the Kaplan-Meier survival test. Statistical tests were performed with the use of SAS software (version 9.1.3) and Enterprise Guide (version 4.1, SAS Institute Inc., Cary, NC). Data are expressed as means ± SD. P values of < 0.05 were considered to indicate statistical significance.

Prostate cancer cells = assay: In vitro migration assay (Boyden chamber); assay type: cell-based, Human; details: compared to untreated controls
Experimental: Prostate cancer cells (5x10^4 in 1 ml DMEM with 10% FCS) were added to the top of each Boyden migration chamber (8-µm, 12-well plate format; BD Biosciences, Palo Alto, CA). Cells were incubated with 1, 2, and 5 µM of compound AZA1. […] Cells from the upper side of the membrane were removed with cotton swabs. The membranes were excised using a scalpel, inverted and transferred to a PBS filled tissue culture well. Membranes were then fixed in methanol for 2 min at -20°C. After washing in PBS, membranes were stained with 1 µg/ml 4'-6-Diamidino-2-phenylindole (DAPI) in PBS for 10 min at RT and washed again in PBS. Membranes were then embedded in Cityfluor (Cityfluor, Leicester, UK) on glass slides under coverslips. Representative sectors of migrated prostate cancer cells were counted under a fluorescence microscope. Each experiment was performed in triplicate.

[8] = system: chronic myelogenous leukemia (CML); details: in vitro and in vivo; cited from earlier work
PC-3 = details: Rac-hyperactive prostate cancer cells PC-3; cited from earlier work

With `Cc1cc2cc(Nc3ccnc(Nc4ccc5[nH]c(C)cc5c4)n3)ccc2[nH]1` [AZA1, N*2*,N*4*-Bis-(2-methyl-1H-indol-5-yl)-pyrimidine-2,4-diamine] the inhibition at 20 µM (Cyclin D1) was 22%, the Pak1 expression (Pak1) was “not changed” and the solubility [1] was “appropriate solubility”. The “Pak1/2 phosphorylation at serine 144/141” value [2] was “significantly reduced”, the “sub G1 events (M1)” value (CRL-2505 cells [3]; 1 µM) was 8.08% and the “sub G1 events (M1)” value (CRL-2505 cells [3]; 2 µM) was 9.26%. The “G2/M (M4) phases” value (CRL-2505 cells [3]; 2 µM, untreated 32.25%) was 28.44%, the “phosphorylation of p38” value (phospho-p38) was “significant decrease” and the “apoptosis (staining with Annexin V-FITC and PI)” value (CRL-2505 cells [4]) was “no significant signs of apoptosis”. The “ranking of AZA1 to AZA4 in the in vivo experiments (solubility, lack of toxicity, tumor-suppressive effects)” value ([5]; preliminary experiment, 100 µg i.p. in 30% DMSO, n = 5 per group) was “most potent agent”, the “cell proliferation, staining with Ki-67 antibody” value ([5]; tumour tissue sections, day 24) was “reduced” and the CRL-2505 cell proliferation [6] was “significantly reduced”. For the same compound, the “pAkt at different time points” value (phospho-Akt; 5 min to 90 min after treatment) was “decreased significantly”, the inhibition at 20 µM (phospho-Akt; Homo sapiens, 1 h, 20 µM for 60 min (Fig. 4A), compared to untreated cells, read-out: phospho-Akt levels, reduction) was 24% and the Rac activity (Rac 1, 2, 3; CRL-2505 cells, 5, 10 and 20 µM, 4 h incubation, then 50 ng/ml EGF) was “reduced Rac activity significantly”. The “Rac inhibiting activity, compared with the other screened compounds or NSC23766” value (Rac 1, 2, 3; screening of the newly designed compounds, CRL-2505 cells after EGF treatment) was “improved Rac inhibiting activity when compared to NSC 23766; also recorded: most effective Rac inhibitor”, the “phosphorylation of JNK” value (phospho-JNK) was “significant decrease” and the “activity of ERK (phospho-ERK)” value (phospho-ERK) was “not affected”. The “median time to death” value ([7]; after tumour cell grafting, control 39 ± 15 days) was 46 ± 4 days, the animals still alive ([7]; day 42, when the last control animal died) was 60% and the survival ([7]; vs. control mice, Kaplan-Meier) was “significantly increased”. For the same compound, the cancer cell migration (Prostate cancer cells; 1 µM) was “failed to reduce cancer cell migration”, the cancer cell migration (Prostate cancer cells; 2 µM, 20 h) was “significantly reduced migration” and the cancer cell migration (Prostate cancer cells; 5 µM, 20 h) was “significantly reduced migration”.

For `CCN(CC)CCCC(C)Nc1ncc(C)c(Nc2ccc3[nH]c(C)cc3c2)n1` (stereo not shown) [Compound 10, N*2*-(4-Diethylamino-1-methyl-butyl)-5-methyl-N*4*-(2-methyl-1H-indol-5-yl)-pyrimidine-2,4-diamine], the solubility [1] was “appropriate solubility”.

In the case of `c1cc(Nc2ccc3[nH]ccc3c2)nc(Nc2ccc3[nH]ccc3c2)n1` [Compound 41, N*2*,N*4*-Bis-(1H-indol-5-yl)-pyrimidine-2,4-diamine], the solubility [1] is reported as “appropriate solubility”.

In the case of `c1cc(NCc2ccc3[nH]ccc3c2)nc(Nc2ccc3cc[nH]c3c2)n1` [Compound 55, N*2*-(1H-Indol-6-yl)-N*4*-(1H-indol-5-ylmethyl)-pyrimidine-2,4-diamine], the solubility [1] is reported as “appropriate solubility”.

For `CCN(CC)CCCC(C)Nc1nc(C)cc(Nc2ccc3nc(C)cc(N)c3c2)n1` (stereo not shown) [NSC23766, N6-(2-((4-(diethylamino)-1-methylbutyl)amino)-6-methyl-4-pyrimidinyl)-2-methyl-4,6-quinolinediamine], the “proliferation of chronic myelogenous leukemia (CML)” value [8] is given as “inhibited proliferation”, the anchorage independent growth (PC-3) is given as “able to inhibit” and the invasion (PC-3) is given as “able to inhibit”. The proliferation (PC-3) was “able to inhibit”.
